The target of data set [1] is T1, full-length beta-Catenin (Uniprot ID P35222) (Homo sapiens, UniProt P35222).
T1 construct: 10 nM full-length beta-Catenin (Uniprot ID P35222)
T1 sequence (P35222 1-781): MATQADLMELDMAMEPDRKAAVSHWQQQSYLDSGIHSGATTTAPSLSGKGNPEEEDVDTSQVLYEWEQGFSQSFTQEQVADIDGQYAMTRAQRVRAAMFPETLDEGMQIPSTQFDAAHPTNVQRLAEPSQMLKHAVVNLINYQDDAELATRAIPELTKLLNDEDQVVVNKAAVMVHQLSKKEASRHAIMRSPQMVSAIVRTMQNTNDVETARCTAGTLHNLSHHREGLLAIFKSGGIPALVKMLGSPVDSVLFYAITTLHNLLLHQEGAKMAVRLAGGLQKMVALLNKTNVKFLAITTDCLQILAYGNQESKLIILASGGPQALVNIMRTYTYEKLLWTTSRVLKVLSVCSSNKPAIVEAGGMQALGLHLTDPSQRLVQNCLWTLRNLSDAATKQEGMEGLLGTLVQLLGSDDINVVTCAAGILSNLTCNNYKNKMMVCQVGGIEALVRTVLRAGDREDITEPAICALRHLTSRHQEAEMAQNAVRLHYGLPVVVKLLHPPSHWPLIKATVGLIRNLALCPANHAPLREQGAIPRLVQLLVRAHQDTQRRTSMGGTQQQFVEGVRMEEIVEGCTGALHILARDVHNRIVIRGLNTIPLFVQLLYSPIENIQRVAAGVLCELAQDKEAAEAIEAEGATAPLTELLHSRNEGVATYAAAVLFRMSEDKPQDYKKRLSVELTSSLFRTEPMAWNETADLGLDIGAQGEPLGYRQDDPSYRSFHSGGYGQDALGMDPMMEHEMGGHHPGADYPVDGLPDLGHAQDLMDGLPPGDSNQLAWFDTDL
Nature of the data set: Fluorescence polarization IC50 (beta-catenin / 5FAM-TCF4 10-53 competition). The data set is classed as binding. For orientation: Polarisation of emitted light reports the rotation of a fluorescent probe.

Another data set is described as follows: CHI Log D procedure. The data set is classed as physicochemical. To be noted: for CHI Log D: pH 7.4; for chromatographic logD: pH 7.4, CHI Log D.
[2] abbreviates: fluorescence polarization, read-out: beta-Catenin FP IC50.

Read-outs that look alike come from different tables or passages of the source.

With `CC(=O)N1CCC[C@]12CC=CCCCC1(CCCC=CCCCCCC[C@@](C)(C(=O)N[C@@H](Cc3ccccc3)C(=O)N[C@@H](Cc3csc4ccccc34)C(=O)N[C@@H](CCC(N)=O)C(=O)NC(C)(C)C(N)=O)NC(=O)[C@H](CC(N)=O)NC(=O)[C@H](Cc3ccccc3)NC(=O)[C@H](C)NC(=O)[C@H](C)NC(=O)[C@H](CCC(=O)O)NC(=O)[C@H](CC(=O)O)NC1=O)NC(=O)[C@H](CC(C)C)NC(=O)[C@H](CC(=O)O)NC2=O` (stereo partly drawn) [I-736, Ac-PL3-Asp-Leu-B5-Asp-Glu-Ala-Ala-Phe-Asn-S8-Phe-BztA-Gln-Aib-NH2], the IC50 in data set [1] (setting [2]) and in data set [1] (read-out: FP EC50) was 440 nM in each case. Besides, the “CHI Log D” value in the data set “CHI Log D procedure” is 2.722.
Consider `CC[C@H](C)[C@H](NC(=O)[C@H](Cc1c[nH]cn1)NC(=O)[C@H](Cc1csc2ccccc12)NC(=O)[C@H](Cc1ccccc1)NC(=O)[C@]1(C)CCCCCCC=CCCCC2(CCCC=CC[C@]3(CCCN3C(C)=O)C(=O)N[C@@H](CC(=O)O)C(=O)N[C@@H](CC(C)C)C(=O)N2)C(=O)N[C@@H](CC(=O)O)C(=O)N[C@@H](CCC(=O)O)C(=O)N[C@@H](C)C(=O)N[C@@H](C)C(=O)N[C@@H](Cc2ccccc2)C(=O)N[C@@H](CC(N)=O)C(=O)N1)C(N)=O` (stereo partly drawn) [I-740, Ac-PL3-Asp-Leu-B5-Asp-Glu-Ala-Ala-Phe-Asn-S8-Phe-BztA-His-Ile-NH2], for which the IC50 in data set [1] (setting [2]) and in data set [1] (read-out: FP EC50) was 376 nM in each case. For the same compound, the “CHI Log D” value in “CHI Log D procedure” worked out at 2.822.
Regarding `CC(=O)N1CCC[C@]12CC=CCCCC1(CCCC=CCCCCCC[C@@](C)(C(=O)N[C@@H](Cc3ccccc3)C(=O)N[C@@H](Cc3csc4ccccc34)C(=O)N[C@H](Cc3c[nH]cn3)C(N)=O)NC(=O)[C@H](CC(N)=O)NC(=O)[C@H](Cc3ccccc3)NC(=O)[C@H](C)NC(=O)[C@H](C)NC(=O)[C@H](CCC(=O)O)NC(=O)[C@H](CC(=O)O)NC1=O)NC(=O)[C@H](CC(C)C)NC(=O)[C@H](CC(=O)O)NC2=O` (stereo partly drawn) [I-744, Ac-PL3-Asp-Leu-B5-Asp-Glu-Ala-Ala-Phe-Asn-S8-Phe-BztA-dHis-NH2], the IC50 in data set [1] (setting [2]) and in data set [1] (read-out: FP EC50) was 112 nM in each case. In addition, the “CHI Log D” value in “CHI Log D procedure” came out at 2.557.
On to `CC(=O)N1CCC[C@]12CC=CCCCC1(CCCC=CCCCCCC[C@@](C)(C(=O)N[C@@H](Cc3ccccc3)C(=O)N[C@@H](Cc3csc4ccccc34)C(=O)N[C@H](C(N)=O)[C@@H](C)O)NC(=O)[C@H](CC(N)=O)NC(=O)[C@H](Cc3ccccc3)NC(=O)[C@H](C)NC(=O)[C@H](C)NC(=O)[C@H](CCC(=O)O)NC(=O)[C@H](CC(=O)O)NC1=O)NC(=O)[C@H](CC(C)C)NC(=O)[C@H](CC(=O)O)NC2=O` (stereo partly drawn) [I-748, Ac-PL3-Asp-Leu-B5-Asp-Glu-Ala-Ala-Phe-Asn-S8-Phe-BztA-Thr-NH2], for which the IC50 in data set [1] (setting [2]) and in data set [1] (read-out: FP EC50) was 54 nM in each case. Besides, in “CHI Log D procedure”, the “CHI Log D” value was 2.459.
`CC(=O)N1CCC[C@]12CC=CCCCC1(CCCC=CCCCCCC[C@@](C)(C(=O)N[C@@H](Cc3ccccc3)C(=O)N[C@@H](Cc3csc4ccccc34)C(=O)N[C@@H](C(N)=O)[C@H](C)O)NC(=O)[C@H](CC(N)=O)NC(=O)[C@H](Cc3ccccc3)NC(=O)[C@H](C)NC(=O)[C@H](C)NC(=O)[C@H](CCC(=O)O)NC(=O)[C@H](CC(=O)O)NC1=O)NC(=O)[C@H](CC(C)C)NC(=O)[C@H](CC(=O)O)NC2=O` (stereo partly drawn) [I-754, Ac-PL3-Asp-Leu-B5-Asp-Glu-Ala-Ala-Phe-Asn-S8-Phe-BztA-dThr-NH2]: the IC50 in data set [1] (read-out: FP EC50) and in data set [1] (read-out: beta-Catenin FP IC50) was 115 nM each time. For the same compound, the “CHI Log D” value in “CHI Log D procedure” came to 2.666.
For the compound `CC(=O)N1CCC[C@]12CC=CCCCC1(CCCC=CCCCCCC[C@@](C)(C(=O)N[C@@H](Cc3ccccc3)C(=O)N[C@@H](Cc3csc4ccccc34)C(=O)N[C@H](CC(N)=O)C(N)=O)NC(=O)[C@H](CC(N)=O)NC(=O)[C@H](Cc3ccccc3)NC(=O)[C@H](C)NC(=O)[C@H](C)NC(=O)[C@H](CCC(=O)O)NC(=O)[C@H](CC(=O)O)NC1=O)NC(=O)[C@H](CC(C)C)NC(=O)[C@H](CC(=O)O)NC2=O` (stereo partly drawn) [I-757, Ac-PL3-Asp-Leu-B5-Asp-Glu-Ala-Ala-Phe-Asn-S8-Phe-BztA-dAsn-NH2], the IC50 in data set [1] (read-out: FP EC50) and in data set [1] (read-out: beta-Catenin FP IC50) was 64 nM throughout. The “CHI Log D” value in the data set “CHI Log D procedure” is recorded as 2.546.
As for `CC(=O)N1CCC[C@]12CC=CCCCC1(CCCC=CCCCCCC[C@@](C)(C(=O)N[C@@H](Cc3ccccc3)C(=O)N[C@@H](Cc3csc4ccccc34)C(=O)N(C)[C@@H](CO)C(N)=O)NC(=O)[C@H](CC(N)=O)NC(=O)[C@H](Cc3ccccc3)NC(=O)[C@H](C)NC(=O)[C@H](C)NC(=O)[C@H](CCC(=O)O)NC(=O)[C@H](CC(=O)O)NC1=O)NC(=O)[C@H](CC(C)C)NC(=O)[C@H](CC(=O)O)NC2=O` (stereo partly drawn) [I-759, Ac-PL3-Asp-Leu-B5-Asp-Glu-Ala-Ala-Phe-Asn-S8-Phe-BztA-NMeS-NH2], the IC50 in data set [1] (read-out: FP EC50) and in data set [1] (read-out: beta-Catenin FP IC50) was 1530 nM each time. Besides, in the data set “CHI Log D procedure”, the “CHI Log D” value is given as 2.582.
In the case of `CC(=O)N1CCC[C@]12CC=CCCCC1(CCCC=CCCCCCC[C@@](C)(C(=O)N[C@@H](Cc3ccccc3)C(=O)N[C@@H](Cc3csc4ccccc34)C(=O)N(C)[C@@H](CO)C(N)=O)NC(=O)[C@H](CC(N)=O)NC(=O)[C@H](Cc3ccccc3)NC(=O)[C@H](C)NC(=O)[C@H](C)NC(=O)[C@H](CCC(=O)O)NC(=O)[C@H](CC(=O)O)NC1=O)NC(=O)[C@H](CC(C)C)NC(=O)[C@H](CC(=O)O)NC2=O` (stereo partly drawn) [I-760, Ac-PL3-Asp-Leu-B5-Asp-Glu-Ala-Ala-Phe-Asn-S8-Phe-BztA-NMeS-NH2], the IC50 in data set [1] (read-out: FP EC50) and in data set [1] (read-out: beta-Catenin FP IC50) was 608 nM each time. Besides, the “CHI Log D” value in “CHI Log D procedure” was determined as 2.66.
Regarding `CC(=O)N1CCC[C@]12CC=CCCCC1(CCCC=CCCCOC(=O)N3CC[C@@](C(=O)N[C@@H](Cc4ccsc4)C(=O)N[C@@H](Cc4csc5ccccc45)C(=O)N[C@@H](CCC(N)=O)C(N)=O)(C3)NC(=O)[C@H](CCC(N)=O)NC(=O)[C@H](Cc3ccccc3)NC(=O)[C@H](C)NC(=O)[C@H](C)NC(=O)[C@H](CC(=O)O)NC(=O)[C@H](CC(=O)O)NC1=O)NC(=O)[C@H](CC(C)(C)C)NC(=O)[C@H](CC(=O)O)NC2=O` (stereo partly drawn) [I-763, Ac-PL3-Asp-Npg-B5-Asp-Asp-Ala-Ala-Phe-Gln-PyrS2-3Thi-BztA-Gln-NH2], the IC50 in data set [1] (read-out: beta-Catenin FP IC50) amounted to 5 nM. Moreover, the “CHI Log D” value in “CHI Log D procedure” was 1.967.
In general, chromatographic logD refers to a lipophilicity value derived from retention on a column. Turning to `CC(=O)N1CCC[C@]12CC=CCCCC1(CCCC=CCCCOC(=O)N3CC[C@@](C(=O)N[C@@H](Cc4ccsc4)C(=O)N[C@@H](Cc4c[nH]c5cc(Cl)ccc45)C(=O)N[C@@H](Cc4c[nH]cn4)C(N)=O)(C3)NC(=O)[C@H](CC(N)=O)NC(=O)[C@H](Cc3ccccc3)NC(=O)[C@H](C)NC(=O)[C@H](C)NC(=O)[C@H](CC(=O)O)NC(=O)[C@H](CC(=O)O)NC1=O)NC(=O)[C@H](CC(C)(C)C)NC(=O)[C@H](CC(=O)O)NC2=O` (stereo partly drawn) [I-798, Ac-PL3-Asp-Npg-B5-Asp-Asp-Ala-Ala-Phe-Asn-PyrS2-3Thi-6C1W-His-NH2], in data set [1] (read-out: beta-Catenin FP IC50), the IC50 was 106 nM. The compound also yielded a chromatographic logD in “CHI Log D procedure” of 2.07.
On the same counts, the results for `CC(=O)N1CCC[C@]12CC=CCCCC1(CCCC=CCCCOC(=O)N3CC[C@@](C(=O)N[C@@H](Cc4ccsc4)C(=O)N[C@@H](Cc4csc5ccccc45)C(=O)N[C@@H](CCC(N)=O)C(N)=O)(C3)NC(=O)[C@H](Cc3ccccc3)NC(=O)[C@H](Cc3ccccc3)NC(=O)[C@H](C)NC(=O)[C@H](C)NC(=O)[C@H](Cc3ccccc3C(=O)O)NC(=O)[C@H](CC(=O)O)NC1=O)NC(=O)[C@H](CC(C)(C)C)NC(=O)[C@H](CC(=O)O)NC2=O` (stereo partly drawn) [I-853, Ac-PL3-Asp-Npg-B5-Asp-2COOHF-Ala-Ala-Phe-Phe-PyrS2-3Thi-BztA-Gln-NH2] are 8 nM and 2.52.
On the same counts, the results for `CC(=O)N1CCC[C@]12CC=CCCCC1(CCCC=CCCCOC(=O)N3CC[C@@](C(=O)N[C@@H](Cc4ccsc4)C(=O)N[C@@H](Cc4csc5ccccc45)C(=O)N[C@@H](CCC(N)=O)C(N)=O)(C3)NC(=O)[C@H](Cc3ccccc3)NC(=O)[C@H](Cc3ccccc3)NC(=O)[C@H](C)NC(=O)[C@H](C)NC(=O)[C@H](CC(N)=O)NC(=O)[C@H](CC(=O)O)NC1=O)NC(=O)[C@H](CC(C)(C)C)NC(=O)[C@H](CC(=O)O)NC2=O` (stereo partly drawn) [I-855, Ac-PL3-Asp-Npg-B5-Asp-Asn-Ala-Ala-Phe-Phe-PyrS2-3Thi-BztA-Gln-NH2] are 22 nM and 2.54.
For the compound `CC(=O)N1CCC[C@]12CC=CCCCC1(CCCC=CCCCOC(=O)N3CC[C@@](C(=O)N[C@@H](Cc4ccsc4)C(=O)N[C@@H](Cc4csc5ccccc45)C(=O)N[C@@H](CCC(N)=O)C(=O)N[C@@H](CCCCNC(=O)CCc4cc(C(F)(F)F)cc(C(F)(F)F)c4)C(N)=O)(C3)NC(=O)[C@H](CC(N)=O)NC(=O)[C@H](Cc3ccccc3)NC(=O)[C@H](C)NC(=O)[C@H](C)NC(=O)[C@H](CC(=O)O)NC(=O)[C@H](CC(=O)O)NC1=O)NC(=O)[C@H](CC(C)(C)C)NC(=O)[C@H](CC(=O)O)NC2=O` (stereo partly drawn) [I-902, Ac-PL3-Asp-Npg-B5-Asp-Asp-Ala-Ala-Phe-Asn-PyrS2-3Thi-BztA-Gln-[35CF3PhPr]Lys-NH2], the IC50 in data set [1] (read-out: beta-Catenin FP IC50) was 104 nM. This compound also displayed a chromatographic logD in “CHI Log D procedure” of 2.69.

(Values after patent publication US20240116985A1, “STAPLED PEPTIDES AND METHODS THEREOF” (priority 2020, published 2024).)
